# Assay results published in patent publication US11110070B2 (priority 2015, dated 2021).
# Entries after “also recorded” stand apart in the source; their conditions may differ.
# Legend:
# C57BL/6NTac mice [1] = experiment: NSF in CORT model; type: in vivo; settings: ketamine 10 and 90 mg kg^−1 before CORT
# Procedure: Experiment 5 (Pre-ketamine and pre-fluoxetine corticosterone (CORT)): C57BL16NTac mice were injected with ketamine (10, 30, 90 mg kg^−1, i.p.) 1 week before the start of CORT, or administered fluoxetine (18 mg kg^−1 per day) in the drinking water for 3 weeks before the start of CORT. Ketamine was purchased from Merial (100 mg/ml stock solution). Fluoxetine hydrochloride (160 μg/mL, equivalent to 18 mg kg^−1 per day in the drinking water) was purchased from Anawa Trading (Zurich, Switzerland) and dissolved in 0.45% hydroxypropyl-β-cyclodextrin (β-CD) (Sigma-Aldrich, Saint-Quentin Fallavier, France) solution. Following ketamine or fluoxetine treatment, CORT was administered for 3 weeks in the drinking water. CORT (4-pregnen-11b-DIOL-3 20-DIONE 21-hemisuccinate) (35 μg/ml) from. Sigma Aldrich (Saint-Quentin Fallavier, France) was dissolved in vehicle (0.45% β-CD). Control animals received vehicle (0.45% β-CD) throughout the duration of the experiment. […]
# Testing was performed as previously described (A13). […] The latency of the mice to begin eating was recorded. Immediately after the latency was recorded, the food pellet was removed from the arena. The mice were then placed into a cage and the amount of food consumed in 5 min was measured (home cage consumption), followed by an assessment of post-restriction weight. […]
# C57BL/6NTac mice [2] = experiment: EPM in CORT model; type: in vivo; settings: ketamine or fluoxetine before CORT
# Procedure: Experiment 5 (Pre-ketamine and pre-fluoxetine corticosterone (CORT)): C57BL16NTac mice were injected with ketamine (10, 30, 90 mg kg^−1, i.p.) 1 week before the start of CORT, or administered fluoxetine (18 mg kg^−1 per day) in the drinking water for 3 weeks before the start of CORT. Ketamine was purchased from Merial (100 mg/ml stock solution). Fluoxetine hydrochloride (160 μg/mL, equivalent to 18 mg kg^−1 per day in the drinking water) was purchased from Anawa Trading (Zurich, Switzerland) and dissolved in 0.45% hydroxypropyl-β-cyclodextrin (β-CD) (Sigma-Aldrich, Saint-Quentin Fallavier, France) solution. Following ketamine or fluoxetine treatment, CORT was administered for 3 weeks in the drinking water. CORT (4-pregnen-11b-DIOL-3 20-DIONE 21-hemisuccinate) (35 μg/ml) from. Sigma Aldrich (Saint-Quentin Fallavier, France) was dissolved in vehicle (0.45% β-CD). Control animals received vehicle (0.45% β-CD) throughout the duration of the experiment.
# Testing was performed as previously described (A14). […] For the 12956/SvEv experiments, videos were scored using behavioral tracking software (TopScan, CleverSys, Reston, Va.). For the C57BL/6Ntac experiments, all parameters were measured using a videotracker (EPM3C. Bioseb, Vitrolles, France).
# 129S6/SvEvTac mice [3] = experiment: FST after reinstatement; type: in vivo
# Procedure: The FST was administered as previously described (Richardson-Jones et al., 2010; Brachman et al., 2016).
# 129S6/SvEvTac mice [4] = experiment: 3-shock CFC, extinction and reinstatement paradigm; type: in vivo
# Procedure: A single injection of saline (0.9% NaCl) far ketamine (30 mg kg^−1) (Ketaset III, Ketamine HCl injection, Fort Dodge Animal Health, Forth Dodge, Iowa) was administered once during the course of each experiment.
# A 3-shock CFC paradigm was administered as previously described (Drew et al., 2010; Denny et al., 2014). Mice were placed in the conditioning chamber and received 3 shocks 180, 240, and 300 s later (2 s, 0.75 mA) and were removed 15 s following the last shock. All sessions were scored for freezing using FreezeView2http://actimetrics.com/downloads/freezeframe/).
# Extinction began 4 days after the initial 3-shock CFC procedure, or 4 days after the reinstatement procedure. Each group of mice was subjected to 2 extinction trials per day. Each extinction trial lasted 30 min, with an intertrial interval of at least 2 h. For each extinction trial, mice were placed in the same box used for CFC without receiving foot shocks. All trials were scored for freezing. The freezing presented throughout the text represents averaged freezing behavior for the first 3 min of each extinction trial.
# Reinstatement took place in the same Coulbourn fear conditioning box, but with altered cues. A 1-shock CFC paradigm was administered as previously described (Drew et al., 2010; Denny et al., 2012; Denny et al., 2014), with the exception of two experiments in which the mice were administered 3 shocks.
# [5] = in rodents; cited from earlier work
# [6] = ketamine 1 week prior to 3-shock reinstatement
# [7] = ketamine 1 week before CFC, vs saline
compound,measurement,setting,value
"CNC1(c2ccccc2Cl)CCCCC1=O (racemic) [ketamine, (RS)-2-(2-chlorophenyl)-2-(methylamino)cyclohexanone]",latency to feed in NSF,C57BL/6NTac mice [1],prevented the chronic CORT-induced increase in latency to feed; also recorded: decreased the latency to feed
same,time in the closed arms of EPM (anxiety-like phenotype),C57BL/6NTac mice [2],Neither ketamine nor fluoxetine robustly protected
same,time immobile in the FST,129S6/SvEvTac mice [3]; ketamine 1 week prior to 1-shock reinstatement,equal levels of immobility
same,time immobile in the FST,129S6/SvEvTac mice [3]; [6],equal levels of immobility in the FST
same,freezing during 3-shock CFC training,"129S6/SvEvTac mice [4]; ketamine 30 mg kg^−1 1 week before CFC, vs saline",comparable levels of freezing
same,fear response (freezing) during CFC training,129S6/SvEvTac mice [4]; ketamine 1 month before CFC,did not result in a decreased fear response
same,freezing behavior during extinction,129S6/SvEvTac mice [4]; ketamine 1 month before CFC,did not alter freezing behavior during extinction
same,"fear, first trial of extinction vs first trial of re-extinction (E1 vs. E9)",129S6/SvEvTac mice [4]; [7],significantly decreased levels of fear
same,freezing during the first extinction exposure,129S6/SvEvTac mice [4]; [7],significantly less freezing behavior
same,fear expression during extinction training,"129S6/SvEvTac mice [4]; ketamine 1 week following CFC, 1 week prior to extinction",did not alter fear expression during extinction training; also recorded: equal levels of freezing behavior during all extinction trials
same,"subsequent fear expression (reinstatement, secondary extinction)",129S6/SvEvTac mice [4]; ketamine 1 week prior to 1-shock reinstatement (24 h after the last extinction trial),did not alter subsequent fear expression; also recorded: equal levels of freezing behavior during reinstatement and during secondary extinction trials
same,"fear expression (reinstatement, secondary extinction)",129S6/SvEvTac mice [4]; [6],did not alter fear expression; also recorded: comparable levels of fear behavior
same,fear expression during the first re-exposure,129S6/SvEvTac mice [4]; ketamine 1 h after 3-shock reinstatement,buffered fear expression during the first re-exposure
same,freezing throughout secondary extinction,"129S6/SvEvTac mice [4]; ketamine 1 h after 3-shock reinstatement, vs saline",transiently decreased freezing throughout extinction; also recorded: decreased fear
same,freezing during extinction,129S6/SvEvTac mice [4]; ketamine 1 h before CFC,froze comparably during extinction; also recorded: equal levels of freezing behavior during almost all extinction trials
same,subsequent fear expression (secondary extinction trials),129S6/SvEvTac mice [4]; ketamine 1 h following 1-shock reinstatement,did not alter subsequent fear expression; also recorded: comparable levels of fear behavior during secondary extinction trials
same,fear expression during extinction,129S6/SvEvTac mice [4]; ketamine 1 h following 3-shock CFC training,did not alter fear expression during extinction; also recorded: equal levels of freezing behavior during all extinction trials
same,fear expression during extinction training,129S6/SvEvTac mice [4]; ketamine 1 h prior to extinction,did not alter fear expression during extinction training; also recorded: equal levels of freezing behavior during all extinction trials
same,freezing behavior during extinction,129S6/SvEvTac mice [4]; ketamine 24 h before CFC,did not alter
same,subsequent fear expression (secondary extinction trials),129S6/SvEvTac mice [4]; ketamine 24 h following 3-shock reinstatement,did not alter subsequent fear expression; also recorded: comparable levels of freezing behavior
same,half-life,[5],only a few hours
